Source: PubChem BioAssay (NCI)
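Grown in 96-well plates, cells were treated for 48 hours with each compound at five concentrations. Insufficient inhibition: endpoint recorded as highest concentration tested. TGI: total growth inhibition.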

How the values were obtained:
Assay in all cases: NCI tumour cell line growth inhibition, 48 h
[1] = tested on: A498 renal
[2] = tested on: A549 NSCLC
[3] = tested on: CCRF-CEM leukemia
[4] = tested on: COLO 205 colon
[5] = tested on: DLD-1 colon
[6] = tested on: DMS 114 small cell lung
[7] = tested on: DMS 273 small cell lung
[8] = tested on: EKVX NSCLC
[9] = tested on: HCC-2998 colon
[10] = tested on: HCT-116 colon
[11] = tested on: HCT-15 colon
[12] = tested on: HL-60(TB) leukemia
[13] = tested on: HOP-18 NSCLC
[14] = tested on: HOP-62 NSCLC
[15] = tested on: HOP-92 NSCLC
[16] = tested on: HT29 colon
[17] = tested on: IGROV1 ovarian
[18] = tested on: K-562 leukemia
[19] = tested on: KM12 colon
[20] = tested on: KM20L2 colon
[21] = tested on: LOX IMVI melanoma
[22] = tested on: M19-MEL melanoma
[23] = tested on: MALME-3M melanoma
[24] = tested on: MCF7 breast
[25] = tested on: MOLT-4 leukemia
[26] = tested on: NCI-H226 lung
[27] = tested on: NCI-H23 lung
[28] = tested on: NCI-H460 lung
[29] = tested on: NCI-H522 lung
[30] = tested on: NCI/ADR-RES ovarian
[31] = tested on: OVCAR-3 ovarian
[32] = tested on: OVCAR-4 ovarian
[33] = tested on: OVCAR-5 ovarian
[34] = tested on: OVCAR-8 ovarian
[35] = tested on: P388 leukemia
[36] = tested on: RPMI-8226 leukemia
[37] = tested on: RXF 393 renal
[38] = tested on: SF-268 CNS
[39] = tested on: SF-295 CNS
[40] = tested on: SF-539 CNS
[41] = tested on: SK-MEL-2 melanoma
[42] = tested on: SK-MEL-28 melanoma
[43] = tested on: SK-MEL-5 melanoma
[44] = tested on: SK-OV-3 ovarian
[45] = tested on: SN12C renal
[46] = tested on: SN12K1 renal
[47] = tested on: SNB-19 CNS
[48] = tested on: SNB-75 CNS
[49] = tested on: SNB-78 CNS
[50] = tested on: SW-620 colon
[51] = tested on: U251 CNS
[52] = tested on: UACC-257 melanoma
[53] = tested on: UACC-62 melanoma
[54] = tested on: UO-31 renal
[55] = tested on: XF 498 CNS

Measured: TGI

CCCCCOc1ccc(C=Nc2ccc(CCc3ccc(N=Cc4ccc(OCCCCC)cc4)cc3)cc2)cc1
> 100 µM: [1] | [2] | [3] | [4] | [5] | [6] | [7] | [8] | [9] | [10] | [11] | [12] | [13] | [14] | [15] | [16] | [17] | [18] | [19] | [20] | [21] | [22] | [23] | [24] | [25] | [26] | [27] | [28] | [29] | [30] | [31] | [32] | [33] | [34] | [35] | [36] | [37] | [38] | [39] | [40] | [41] | [42] | [43] | [44] | [45] | [46] | [47] | [48] | [49] | [50] | [51] | [52] | [53] | [54] | [55]
